The source of these data is ChEMBL document CHEMBL1126223, “Adenosine deaminase inhibitors. Synthesis and biological evaluation of C1' and nor-C1' derivatives of (+)-erythro-9-(2(S)-hydroxy-3(R)-nonyl)adenine” (J Med Chem, 1992).

The target of assay [1] is T1, Adenosine deaminase (Bos taurus, UniProt P56658).
T1 sequence (P56658 whole entry): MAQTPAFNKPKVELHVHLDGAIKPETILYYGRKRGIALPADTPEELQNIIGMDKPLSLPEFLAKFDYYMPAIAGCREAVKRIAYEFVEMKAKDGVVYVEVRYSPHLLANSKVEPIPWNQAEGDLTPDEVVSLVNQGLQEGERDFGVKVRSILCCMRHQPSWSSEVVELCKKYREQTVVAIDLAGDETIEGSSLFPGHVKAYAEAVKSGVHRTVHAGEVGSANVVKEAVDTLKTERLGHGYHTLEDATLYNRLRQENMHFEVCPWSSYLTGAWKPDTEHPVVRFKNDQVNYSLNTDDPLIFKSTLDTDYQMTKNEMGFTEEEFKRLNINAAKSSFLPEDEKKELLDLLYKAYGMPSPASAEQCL
The assay can be described thus: Binding affinity (Ki) at calf intestinal Adenosine deaminase.

Assay [2] concerns the target T1, Adenosine deaminase. Put plainly: Binding affinity (Ki) at calf intestinal adenosine deaminase.

At Adenosine deaminase [1], `CCCCCC[C@H]([C@@H](O)CO)n1cnc2c(N)ncnc21` returned a Ki of 0.056 µM.

In the case of `CCCCCC[C@H]([C@@H]1CO1)n1cnc2c(N)ncnc21`, the affinity at Adenosine deaminase [1], expressed as Ki, was 0.89 µM.

In turn, `CCCCCC[C@H](CCl)n1cnc2c(N)ncnc21` showed a Ki at Adenosine deaminase [2] of 0.32 µM.

On to `CCCCCC[C@H](CO)n1cnc2c(N)ncnc21`, for which, at Adenosine deaminase [1], the inhibitory constant (Ki) stood at 0.047 µM. That is a double-digit nanomolar value.

On Adenosine deaminase [1], `CCCCCC[C@H](CF)n1cnc2c(N)ncnc21` showed a Ki of 1.6 µM.

In the case of `CCCCCC[C@H](CBr)n1cnc2c(N)ncnc21`, at Adenosine deaminase [2], the Ki is 0.6 µM.

For `CCCCCC[C@@H]1[C@@H](O)C[n+]2cnc(N)c3ncn1c32`, the Ki at Adenosine deaminase [2] worked out at 1 µM.

In turn, `CCCCCC[C@H](CN=[N+]=[N-])n1cnc2c(N)ncnc21` showed a Ki on Adenosine deaminase [2] of 1.3 µM.

Consider `CCCCCC[C@H]([C@H](C)O)n1cnc2c(N)ncnc21` [(+)-EHNA], for which the Ki on Adenosine deaminase [1] was determined as 0.002 µM. In other words, the single-digit nanomolar range.

As for `CCCCCC[C@@H]([C@@H](C)O)n1cnc2c(N)ncnc21` [EHNA], on Adenosine deaminase [2], the Ki was 0.004 µM.

The term Ki denotes the dissociation constant of the complex between target and ligand, obtained from inhibition or displacement. Low readings indicate higher affinity, high ones lower affinity.
